Read-outs that look alike come from different tables or passages of the source.
Tests used:
[1] = cited from earlier work
[2] = Particle size distribution by laser diffraction; type: physicochemical; settings: for Particle size D10 / Particle size D50 / Particle size D90: laser diffraction
Protocol: Measurement of particle size distributions of budesonide, tiotropium bromide and formoterol fumarate before and after jet milling were measured by laser diffraction (HELOS, Sympatec GmbH, Clausthal-Zellerfelg, Germany). A small amount of formoterol fumarate and Tiotropium bromide were separately dispersed in 10 mL 0.01% tween 80 mineral oil and a small amount of budesonide was dispersed in 10 mL 0.01% tween 80 in deionized water. The samples were sonicated for 5 minutes and diluted with enough solvent to produce light obscuration in the range of 15-20%. The sizes reported are average values of at least 3 measurements. The results are presented as D(x) and span, where X is the cumulative percentile of particles under the referred size (e.g. D(50) corresponds to the median diameter of the particles). Span is a measurement of particle size distribution calculated as [(D(90)−D(10)]/D(50).

[3] = Particle size distribution by laser diffraction; type: physicochemical; settings: [(D(90)−D(10)]/D(50))
[4] = BET specific surface area of triple therapy materials; type: physicochemical; settings: for SSA: after jet milling
Protocol: Powder porosity was determined through the measurement of the specific surface area (SSA) using a Monosorb MS-22 rapid surface area analyzer (Quantachrome Instruments, Boynton Beach, Fla.). The instrument uses a modified BET equation for SSA determination. Samples were degassed in a Thermoflow™ Degasser for at least 2 hours at 25° C. using 30% nitrogen in helium as the […].

Structure (SMILES) | Span ([2]; [(D(90)−D(10)]/D(50))) | Particle size D10 [2] [μm] | Particle size D50 [2] [μm] | Particle size D90 [2] [μm] | Span [3] | SSA ± SD [4] [m^2/g] | other results
C[C@@H]1C[C@H]2[C@@H]3CCC4=CC(=O)C=C[C@]4(C)[C@@]3(Cl)[C@@H](O)C[C@]2(C)[C@@]1(OC(=O)c1ccco1)C(=O)CCl [mometasone furoate] | – | – | – | – | – | – | Solubility in water [1]: practically insoluble
OCc1cc(C(O)CNCCCCCCOCCCCc2ccccc2)ccc1O (centres unmarked) [salmeterol xinafoate] | – | – | – | – | – | – | Solubility in water [1]: sparingly soluble
OC[C@@H](O)[C@@H](O)[C@H](O)[C@H](O)CO [Mannitol, D-(+)-Mannitol] | 1.8 | 6.88 ± 0.07 | 52.70 ± 0.59 | 101.91 ± 0.41 | 1.80 | 0.22 ± 0.001 | Particle size D50 ([2]; listed as mannitol): 52.70±0.59 μm
C[N+]1(C)[C@@H]2C[C@@H](OC(=O)C(O)(c3cccs3)c3cccs3)C[C@H]1[C@@H]1O[C@@H]12 [Jet milled tiotropium bromide, tiotropium bromide] | 2.0 | 1.09 ± 0.79 | 4.65 ± 0.04 | 10.39 ± 0.04 | – | 2.86 ± 0.11 | –
C[N+]1(C)[C@@H]2C[C@@H](OC(=O)C(O)(c3cccs3)c3cccs3)C[C@H]1[C@@H]1O[C@@H]12 [Tiotropium bromide, tiotropium bromide] | 2.14 | 1.10 ± 0.01 | 5.14 ± 0.03 | 12.11 ± 0.07 | 2.14 | 2.08 ± 0.13 | D50 ([2]; after jet milling): 4.65±0.04 μm; Span ([2]; after jet milling): 2.0; Particle size D50 ([2]; listed as tiotropium): 5.14±0.03 μm; SSA [4]: 2.86±0.11 m^2/g; SSA ± SD ([4]; listed as tiotropium): 2.08±0.13 m^2/g
COc1ccc(C[C@@H](C)NC[C@H](O)c2ccc(O)c(NC=O)c2)cc1.COc1ccc(C[C@@H](C)NC[C@H](O)c2ccc(O)c(NC=O)c2)cc1.O=C(O)/C=C/C(=O)O [jet milled formoterol fumarate, formoterol fumarate] | 1.96 | 1.45 ± 1.01 | 4.51 ± 0.02 | 10.29 ± 0.07 | – | 5.08 ± 0.26 | –
COc1ccc(C[C@@H](C)NC[C@H](O)c2ccc(O)c(NC=O)c2)cc1.COc1ccc(C[C@@H](C)NC[C@H](O)c2ccc(O)c(NC=O)c2)cc1.O=C(O)/C=C/C(=O)O [Formoterol furmarate, formoterol fumarate] | 7.75 | 1.16 ± 0.05 | 6.27 ± 0.97 | 49.78 ± 7.84 | 7.75 | 2.97 ± 0.05 | D50 ([2]; after jet milling): 4.51±0.02 μm; Span ([2]; after jet milling): 1.96; Particle size D50 ([2]; listed as Formoterol): 6.27±0.97 μm; SSA [4]: 5.08±0.26 m^2/g; SSA ± SD ([4]; listed as formoterol): 2.97±0.05 m^2/g
O.OC[C@H]1O[C@@H](O[C@H]2[C@H](O)[C@@H](O)C(O)O[C@@H]2CO)[C@H](O)[C@@H](O)[C@H]1O (some centres unmarked) [Lactose monohydrate, lactose monohydrate] | 2.43 | 4.13 ± 0.11 | – | 100.9 ± 0.27 | – | 0.34 ± 0.03 | Particle size D50 ([2]; listed as lactose, monohydrate): 39.78±1.32 μm; Particle size D50 ([2]; monohydrate): 39.78 ± 1.32 μm
